Data taken from ChEMBL document CHEMBL1135241 (Bioorg Med Chem Lett, 2002).
pIC50, pKi: −log10 of the molar value.

Experiments:
[1] = target: Delta-type opioid receptor (Rattus norvegicus, UniProt P33533); assay: Binding affinity against Opioid receptor delta 1 using [3H]DT in rat brain synaptosomes was determined; assay type: subcellular
Mu-type opioid receptor [2] = target: Mu-type opioid receptor (Cavia porcellus, UniProt P97266); assay: In vitro biological activity by electrically induced smooth muscle contractions in guinea pig ileum (Opioid receptor mu 1); inhibitory concentration was evaluated; assay type: functional, tissue-based
Chain of Mu-type opioid receptor (Cavia porcellus, UniProt P97266) (P97266 whole entry): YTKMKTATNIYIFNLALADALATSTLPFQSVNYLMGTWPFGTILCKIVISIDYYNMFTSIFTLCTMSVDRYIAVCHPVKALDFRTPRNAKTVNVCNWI

[3] = target: Delta-type opioid receptor (Mus musculus, UniProt P32300); assay: In vitro biological activity by electrically induced smooth muscle contractions in mouse vas deferens (Opioid receptor delta 1); inhibitory concentration was evaluated; assay type: functional
Chain of Delta-type opioid receptor (Mus musculus, UniProt P32300) (P32300 whole entry): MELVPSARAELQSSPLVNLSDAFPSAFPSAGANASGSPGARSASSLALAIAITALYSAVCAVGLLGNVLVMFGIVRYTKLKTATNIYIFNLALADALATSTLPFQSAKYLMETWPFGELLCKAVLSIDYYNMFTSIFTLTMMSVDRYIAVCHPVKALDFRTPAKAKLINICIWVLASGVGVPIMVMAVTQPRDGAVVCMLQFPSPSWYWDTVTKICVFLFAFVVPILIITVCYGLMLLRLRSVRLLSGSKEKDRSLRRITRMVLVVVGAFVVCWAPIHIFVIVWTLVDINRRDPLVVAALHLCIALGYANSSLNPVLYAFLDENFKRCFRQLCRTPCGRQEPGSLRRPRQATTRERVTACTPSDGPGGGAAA

Mu-type opioid receptor [4] = target: Mu-type opioid receptor (Rattus norvegicus, UniProt P33535); assay: Binding affinity against Opioid receptor mu 1 using [3H]DAMGO in rat brain synaptosomes was determined; assay type: subcellular
Chain of Mu-type opioid receptor (Rattus norvegicus, UniProt P33535) (P33535 whole entry): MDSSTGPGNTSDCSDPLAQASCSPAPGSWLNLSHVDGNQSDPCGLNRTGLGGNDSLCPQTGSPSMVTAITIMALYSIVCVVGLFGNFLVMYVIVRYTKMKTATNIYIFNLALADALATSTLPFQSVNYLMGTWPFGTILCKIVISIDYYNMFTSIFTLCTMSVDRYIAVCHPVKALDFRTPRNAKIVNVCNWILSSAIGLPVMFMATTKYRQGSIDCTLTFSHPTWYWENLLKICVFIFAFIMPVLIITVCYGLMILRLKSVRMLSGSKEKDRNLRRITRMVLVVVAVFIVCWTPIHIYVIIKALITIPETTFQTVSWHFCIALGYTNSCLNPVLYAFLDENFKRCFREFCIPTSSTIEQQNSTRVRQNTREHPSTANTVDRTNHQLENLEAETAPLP

[5] = Ratio of inhibitory concentration of guinea pig ileum to mouse vas deferens was determined; assay type: functional

Chain of Delta-type opioid receptor (Rattus norvegicus, UniProt P33533) (P33533 whole entry): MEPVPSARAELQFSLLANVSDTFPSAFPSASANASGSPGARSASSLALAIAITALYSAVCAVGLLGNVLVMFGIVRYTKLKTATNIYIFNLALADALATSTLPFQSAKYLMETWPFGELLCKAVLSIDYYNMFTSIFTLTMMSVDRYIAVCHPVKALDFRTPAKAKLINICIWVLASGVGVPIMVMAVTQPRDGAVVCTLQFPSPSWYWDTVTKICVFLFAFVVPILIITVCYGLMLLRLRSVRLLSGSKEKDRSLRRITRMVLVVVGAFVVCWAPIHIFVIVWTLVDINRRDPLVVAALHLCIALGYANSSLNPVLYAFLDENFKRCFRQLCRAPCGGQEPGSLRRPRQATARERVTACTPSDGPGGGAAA

| SMILES | pKi [1] | pIC50 (Mu-type opioid receptor [2]) | pIC50 [3] | pKi (Mu-type opioid receptor [4]) | Ratio [5] |
| --- | --- | --- | --- | --- | --- |
| Cc1cccc(C)c1C[C@@H](NC(=O)[C@@H](C)NC(=O)[C@@H](N)Cc1ccc(O)cc1)C(=O)NCC(=O)N[C@@H](Cc1ccc(O)cc1)C(=O)N1CCC[C@H]1C(=O)N[C@@H](CO)C(N)=O | 5.48 | 7.35 | – | – | – |
| Cc1cccc(C)c1C[C@@H](NC(=O)[C@@H](C)NC(=O)[C@@H](N)Cc1ccc(O)cc1)C(=O)N[C@@H](CCC(=O)O)C(=O)N[C@H](C(=O)N[C@H](C(=O)NCC(N)=O)C(C)C)C(C)C | 6.95 | 5.09 | 6.84 | 5.71 | 56 |
| CC(C)[C@H](NC(=O)[C@H](CC(=O)O)NC(=O)[C@H](Cc1ccccc1)NC(=O)[C@@H](C)NC(=O)[C@@H](N)Cc1ccc(O)cc1)C(=O)N[C@H](C(=O)NCC(N)=O)C(C)C [DELTORPHIN C] | 11.59 | 5.26 | – | 6.50 | – |
| Cc1cccc(C)c1C[C@H](NC(=O)[C@H](C)NC(=O)[C@@H](N)Cc1ccc(O)cc1)C(=O)NCC(=O)N[C@@H](Cc1ccc(O)cc1)C(=O)N1CCC[C@H]1C(=O)N[C@@H](CO)C(N)=O | 7.34 | 8.92 | – | – | – |
| C[C@@H](NC(=O)[C@@H](N)Cc1ccc(O)cc1)C(=O)N[C@@H](Cc1ccccc1)C(=O)NCC(=O)N[C@@H](Cc1ccc(O)cc1)C(=O)N1CCC[C@H]1C(=O)N[C@@H](CO)C(N)=O [DERMORPHIN] | – | 8.43 | – | 10.04 | – |
| Cc1cccc(C)c1C[C@H](NC(=O)[C@H](C)NC(=O)[C@@H](N)Cc1ccc(O)cc1)C(=O)N[C@@H](CCC(=O)O)C(=O)N[C@H](C(=O)N[C@H](C(=O)NCC(N)=O)C(C)C)C(C)C | 11.98 | 5.17 | 10.66 | 5.96 | 304772 |
